Results taken from ChEMBL document CHEMBL1201862, “PubChem BioAssay data set” (2004).
Calls of active or inactive are those of the source.

Assays:
[1] = target: T1, Caspase-6 (Homo sapiens, UniProt P55212); assay: inhibition of CASP6 peptide cleavage – biochemical, VEID-R110 fluorescence, cherry-pick, dose response (AID 720632)
T1 sequence (P55212 whole entry): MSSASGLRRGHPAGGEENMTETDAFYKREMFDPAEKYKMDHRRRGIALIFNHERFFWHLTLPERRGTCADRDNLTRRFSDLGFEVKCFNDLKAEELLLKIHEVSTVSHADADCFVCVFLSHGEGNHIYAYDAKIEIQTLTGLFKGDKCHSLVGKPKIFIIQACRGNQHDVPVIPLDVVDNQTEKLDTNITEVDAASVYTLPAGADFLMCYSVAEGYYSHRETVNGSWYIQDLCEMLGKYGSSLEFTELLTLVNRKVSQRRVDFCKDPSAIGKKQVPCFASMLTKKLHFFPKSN

[2] = target: Paired box protein Pax-8 (Homo sapiens, UniProt Q06710); assay: PAX8 transcriptional activity inhibition in RMG-I – RMG-I cells, luciferase, cherry-pick, dose response (AID 687027); assay type: functional, cell-based;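 note: luciferase reporter driven by Pax8 target thyroperoxidase promoter measured by SteadyGlo luminescence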
Chain of Paired box protein Pax-8 (Q06710 whole entry): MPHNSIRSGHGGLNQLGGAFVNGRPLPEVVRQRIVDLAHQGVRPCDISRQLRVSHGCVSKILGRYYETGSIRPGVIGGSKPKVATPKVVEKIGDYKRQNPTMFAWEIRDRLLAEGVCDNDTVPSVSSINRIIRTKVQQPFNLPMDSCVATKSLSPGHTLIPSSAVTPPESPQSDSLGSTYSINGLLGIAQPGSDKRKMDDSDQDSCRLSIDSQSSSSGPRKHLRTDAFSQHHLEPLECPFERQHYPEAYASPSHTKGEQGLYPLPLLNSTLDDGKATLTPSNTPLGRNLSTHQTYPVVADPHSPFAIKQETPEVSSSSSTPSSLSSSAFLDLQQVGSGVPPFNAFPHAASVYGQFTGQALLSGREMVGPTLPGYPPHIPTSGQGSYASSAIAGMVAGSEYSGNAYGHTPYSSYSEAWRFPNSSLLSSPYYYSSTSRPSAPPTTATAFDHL

[3] = OVCAR8 cell viability loss – plate reader, dry powder samples, PAX8 project, dose response (AID 743197); assay type: functional, cell-based; conditions: OVCAR-8
[4] = OVCAR-3 cell viability loss – plate reader, dry powder samples, PAX8 inhibitor project, dose response (AID 743044); assay type: functional, cell-based
[5] = target: T2, Leucine aminopeptidase (Plasmodium falciparum 3D7, UniProt Q8IL11); assay: P. falciparum M17LAP inhibitors, primary screen, biochemical, fluorogenic H-Leu-NHMec substrate, 1536-well (AID 1619); assay type: functional
T2 sequence (Q8IL11 whole entry): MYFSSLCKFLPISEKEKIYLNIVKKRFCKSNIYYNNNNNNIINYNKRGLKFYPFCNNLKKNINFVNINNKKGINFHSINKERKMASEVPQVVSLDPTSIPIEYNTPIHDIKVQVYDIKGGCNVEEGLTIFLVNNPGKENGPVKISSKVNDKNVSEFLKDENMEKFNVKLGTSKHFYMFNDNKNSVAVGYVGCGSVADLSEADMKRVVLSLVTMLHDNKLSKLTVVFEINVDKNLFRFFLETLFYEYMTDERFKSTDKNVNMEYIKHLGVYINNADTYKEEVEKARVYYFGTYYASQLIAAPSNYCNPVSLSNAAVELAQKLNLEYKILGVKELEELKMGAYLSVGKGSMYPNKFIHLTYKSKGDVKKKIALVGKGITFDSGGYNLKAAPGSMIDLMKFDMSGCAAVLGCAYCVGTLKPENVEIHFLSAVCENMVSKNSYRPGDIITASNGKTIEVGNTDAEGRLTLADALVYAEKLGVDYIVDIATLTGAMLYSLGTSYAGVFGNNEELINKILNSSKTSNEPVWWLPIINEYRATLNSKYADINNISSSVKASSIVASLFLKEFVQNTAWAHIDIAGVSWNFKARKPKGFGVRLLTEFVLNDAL

[6] = cells; assay type: functional, cell-based
[7] = cells; assay type: functional, cell-based; remark: listed apart in the source
[8] = target: T3, Coagulation factor XII (Homo sapiens, UniProt P00748); assay type: functional;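 note: activated factor XIIa alpha cleaving a fluorogenic AMC peptide substrate; inhibitor potency from loss of enzyme activity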
T3 sequence (P00748 whole entry): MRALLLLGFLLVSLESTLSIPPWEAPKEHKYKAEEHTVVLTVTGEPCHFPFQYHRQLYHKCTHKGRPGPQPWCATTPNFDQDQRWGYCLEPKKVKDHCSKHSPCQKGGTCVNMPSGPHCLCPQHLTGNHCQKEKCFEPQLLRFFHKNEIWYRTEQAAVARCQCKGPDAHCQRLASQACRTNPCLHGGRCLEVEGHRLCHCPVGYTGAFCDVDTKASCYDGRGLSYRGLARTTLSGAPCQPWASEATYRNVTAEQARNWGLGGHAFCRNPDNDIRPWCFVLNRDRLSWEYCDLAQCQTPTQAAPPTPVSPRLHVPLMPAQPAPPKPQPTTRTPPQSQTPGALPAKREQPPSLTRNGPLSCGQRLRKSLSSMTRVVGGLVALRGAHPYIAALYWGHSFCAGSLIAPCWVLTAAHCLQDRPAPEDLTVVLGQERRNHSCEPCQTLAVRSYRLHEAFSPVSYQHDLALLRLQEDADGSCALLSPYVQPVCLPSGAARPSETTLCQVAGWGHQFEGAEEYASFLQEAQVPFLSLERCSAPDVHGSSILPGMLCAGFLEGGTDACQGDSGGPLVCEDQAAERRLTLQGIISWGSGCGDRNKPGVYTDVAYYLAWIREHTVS

[9] = target: T4, Short transient receptor potential channel 4 (Mus musculus, UniProt Q9QUQ5); assay: calcium entry via TRPC4 opening agents – cell-based, HEK293 TRPC4/mu-opioid, Fluo-4 calcium, dose response (AID 434937); assay type: functional
T4 sequence (Q9QUQ5 whole entry): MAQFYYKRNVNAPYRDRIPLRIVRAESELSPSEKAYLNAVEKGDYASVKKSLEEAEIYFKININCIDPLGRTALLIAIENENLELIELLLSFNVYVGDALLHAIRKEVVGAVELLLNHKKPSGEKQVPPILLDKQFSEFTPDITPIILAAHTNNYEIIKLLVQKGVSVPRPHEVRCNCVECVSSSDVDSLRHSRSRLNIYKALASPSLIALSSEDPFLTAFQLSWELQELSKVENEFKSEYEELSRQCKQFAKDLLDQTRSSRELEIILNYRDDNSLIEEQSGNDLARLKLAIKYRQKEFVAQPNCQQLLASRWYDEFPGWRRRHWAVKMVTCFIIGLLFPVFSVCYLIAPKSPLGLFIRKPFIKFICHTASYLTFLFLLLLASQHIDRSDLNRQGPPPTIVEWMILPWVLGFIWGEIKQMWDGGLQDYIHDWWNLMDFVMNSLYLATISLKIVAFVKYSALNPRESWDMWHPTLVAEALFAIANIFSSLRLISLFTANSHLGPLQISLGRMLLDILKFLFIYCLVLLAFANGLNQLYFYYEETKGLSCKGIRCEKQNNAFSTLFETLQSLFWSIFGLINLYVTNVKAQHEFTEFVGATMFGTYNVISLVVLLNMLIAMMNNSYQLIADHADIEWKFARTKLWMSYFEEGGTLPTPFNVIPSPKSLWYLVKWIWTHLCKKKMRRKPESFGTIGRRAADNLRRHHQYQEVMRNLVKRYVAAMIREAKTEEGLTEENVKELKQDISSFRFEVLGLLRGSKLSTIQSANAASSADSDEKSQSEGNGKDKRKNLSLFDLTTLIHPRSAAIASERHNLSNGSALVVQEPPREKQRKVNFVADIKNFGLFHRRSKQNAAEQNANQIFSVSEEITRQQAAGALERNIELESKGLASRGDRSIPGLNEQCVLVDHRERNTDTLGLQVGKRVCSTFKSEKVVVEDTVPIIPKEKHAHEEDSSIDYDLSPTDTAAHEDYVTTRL

[10] = target: T4, Short transient receptor potential channel 4; assay: block of DAMGO-driven TRPC4 calcium entry – cell-based, HEK293 TRPC4/mu-opioid, Fluo-4 calcium, dose response (AID 434942); assay type: functional;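 note: potency of inhibitors blocking the TRPC4 calcium response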
[11] = target: T5, Corticotropin-releasing factor receptor 2/Corticotropin-releasing factor-binding protein (Homo sapiens, UniProt P24387+Q13324); assay: activators of CRF receptor 2 with binding protein – uHTS hits, confirmation (AID 602473); assay type: functional; conditions: read-out: EC50_Mean
T5 sequence (Q13324 whole entry): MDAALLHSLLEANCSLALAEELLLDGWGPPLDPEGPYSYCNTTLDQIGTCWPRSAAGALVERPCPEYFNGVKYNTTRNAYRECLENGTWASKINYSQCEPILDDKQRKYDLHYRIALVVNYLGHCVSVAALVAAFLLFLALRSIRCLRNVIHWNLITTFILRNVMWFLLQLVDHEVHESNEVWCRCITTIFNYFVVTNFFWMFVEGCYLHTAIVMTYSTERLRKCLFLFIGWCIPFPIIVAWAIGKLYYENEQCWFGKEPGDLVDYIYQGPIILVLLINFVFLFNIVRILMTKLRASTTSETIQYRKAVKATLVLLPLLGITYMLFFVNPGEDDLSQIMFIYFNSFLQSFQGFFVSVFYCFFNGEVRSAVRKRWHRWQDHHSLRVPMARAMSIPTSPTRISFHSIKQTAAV
T5 sequence (P24387 whole entry): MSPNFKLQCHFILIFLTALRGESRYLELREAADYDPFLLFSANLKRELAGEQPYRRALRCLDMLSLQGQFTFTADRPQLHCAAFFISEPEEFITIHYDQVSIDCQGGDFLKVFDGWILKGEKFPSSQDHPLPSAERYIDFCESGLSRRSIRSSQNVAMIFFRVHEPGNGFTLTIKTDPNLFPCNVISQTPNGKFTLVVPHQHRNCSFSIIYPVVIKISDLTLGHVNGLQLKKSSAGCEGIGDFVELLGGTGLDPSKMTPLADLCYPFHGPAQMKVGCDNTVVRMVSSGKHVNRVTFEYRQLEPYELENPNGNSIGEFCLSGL

[12] = reduction of Shn3 3'UTR-driven luciferase in osteoblasts – cell-based, Clone20 osteoblasts, firefly luciferase, cherry-picked, dose response (AID 624132); assay type: functional;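 note: firefly luciferase luminescence from reporter carrying the Shn3 3'UTR in osteoblasts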
[13] = target: T6, Ubiquitin-conjugating enzyme E2 N (Homo sapiens, UniProt P61088); assay type: functional;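 note: Dose-response confirmation in a TR-FRET assay detecting UBC13-driven polyubiquitin chain formation, inhibition measured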
T6 sequence (P61088 whole entry): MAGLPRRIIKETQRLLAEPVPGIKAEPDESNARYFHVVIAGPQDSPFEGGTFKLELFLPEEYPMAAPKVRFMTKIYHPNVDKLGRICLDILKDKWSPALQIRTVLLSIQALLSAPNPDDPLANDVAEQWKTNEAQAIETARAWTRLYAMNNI

[14] = target: T7, DNA repair protein RAD52 homolog (Homo sapiens, UniProt P43351); assay type: functional, biochemical
T7 sequence (P43351 whole entry): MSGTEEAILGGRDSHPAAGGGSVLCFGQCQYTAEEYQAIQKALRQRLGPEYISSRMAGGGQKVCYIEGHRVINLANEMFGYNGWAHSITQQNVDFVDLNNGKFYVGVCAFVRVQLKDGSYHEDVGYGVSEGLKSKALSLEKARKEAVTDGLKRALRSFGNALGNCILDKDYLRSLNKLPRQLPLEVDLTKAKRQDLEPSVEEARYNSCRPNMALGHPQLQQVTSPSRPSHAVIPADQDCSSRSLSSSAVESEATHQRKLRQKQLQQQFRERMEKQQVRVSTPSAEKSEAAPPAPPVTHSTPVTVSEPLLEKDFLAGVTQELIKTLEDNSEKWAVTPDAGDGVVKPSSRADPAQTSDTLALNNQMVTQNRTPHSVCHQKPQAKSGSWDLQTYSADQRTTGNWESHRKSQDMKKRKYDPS

[15] = target: Cytochrome P450 2C19 (Homo sapiens, UniProt P33261); assay: Cytochrome panel assay with activity outcomes. Panel member name: p450-cyp2c19 Compounds with AC50 equal or less than 10 uM are considered active; assay type: functional; conditions: read-out: AC50
Chain of Cytochrome P450 2C19 (P33261 whole entry): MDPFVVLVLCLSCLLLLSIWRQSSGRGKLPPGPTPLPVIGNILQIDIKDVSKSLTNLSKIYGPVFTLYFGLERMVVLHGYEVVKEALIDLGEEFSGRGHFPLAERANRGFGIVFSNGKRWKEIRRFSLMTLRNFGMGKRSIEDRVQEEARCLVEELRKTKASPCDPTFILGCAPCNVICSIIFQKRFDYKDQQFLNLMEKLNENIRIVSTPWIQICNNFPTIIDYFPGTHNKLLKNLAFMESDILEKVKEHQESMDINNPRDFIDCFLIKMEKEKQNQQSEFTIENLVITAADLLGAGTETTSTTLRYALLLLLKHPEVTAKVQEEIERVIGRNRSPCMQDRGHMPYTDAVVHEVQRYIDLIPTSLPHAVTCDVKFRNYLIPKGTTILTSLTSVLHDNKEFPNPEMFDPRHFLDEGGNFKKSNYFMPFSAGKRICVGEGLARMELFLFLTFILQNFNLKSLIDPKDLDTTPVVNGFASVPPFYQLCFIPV

[16] = target: Cytochrome P450 2C9 (Homo sapiens, UniProt P11712)
Chain of Cytochrome P450 2C9 (P11712 whole entry): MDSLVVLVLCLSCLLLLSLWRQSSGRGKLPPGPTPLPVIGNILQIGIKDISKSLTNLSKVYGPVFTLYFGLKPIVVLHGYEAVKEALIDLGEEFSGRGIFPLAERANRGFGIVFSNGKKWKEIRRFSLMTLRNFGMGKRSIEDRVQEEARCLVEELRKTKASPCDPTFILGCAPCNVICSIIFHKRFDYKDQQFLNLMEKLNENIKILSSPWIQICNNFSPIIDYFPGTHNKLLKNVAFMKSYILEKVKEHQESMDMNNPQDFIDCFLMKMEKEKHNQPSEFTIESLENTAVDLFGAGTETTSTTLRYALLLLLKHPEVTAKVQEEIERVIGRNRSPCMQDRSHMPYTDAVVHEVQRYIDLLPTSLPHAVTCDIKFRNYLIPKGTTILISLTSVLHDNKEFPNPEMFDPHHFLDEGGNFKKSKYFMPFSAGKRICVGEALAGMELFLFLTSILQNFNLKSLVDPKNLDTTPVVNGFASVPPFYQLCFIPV

With `CSc1ccc(CN2CCC(C)(Oc3cnc(Cl)c4ccccc34)C2)cc1` (centres undefined) the AC50 [1] was 46 µM (active).

In the case of `C[C@@H]1CCCCO[C@@H](CN(C)S(=O)(=O)c2cccs2)[C@H](C)CN([C@H](C)CO)C(=O)c2cc(NC(=O)Nc3ccc(C(F)(F)F)cc3)ccc2O1`, the AC50 [2] was 3.17 µM (active) and the AC50 [3] was > 70 µM (inactive).

For `C[C@H]1CCCCO[C@H](CN(C)Cc2ccc(C(F)(F)F)cc2)[C@@H](C)CN([C@@H](C)CO)C(=O)c2cc(NS(=O)(=O)c3ccc(F)cc3)ccc2O1`, the AC50 [2] was 9.73 µM (active), the AC50 [4] was 44.9 µM (active) and the AC50 [3] was 43.6 µM (active).

For `CCOc1ccc(NC(=O)CN2C(=O)C3CC=CCC3C2=O)cc1` (centres undefined), the IC50 [5] was 3.86 µM (active).

For `C[C@H](CO)N1C[C@H](C)[C@H](CN(C)CC2CCCCC2)Oc2ccc(NS(=O)(=O)c3ccc(Cl)cc3)cc2CC1=O`, the AC50 [2] was 7.77 µM (active) and the AC50 [4] was 58.6 µM (active).

For `CCCn1c(O)cc(=O)nc1SCC(=O)N1CCc2ccccc2C1`, the IC50 [6] was > 29.9 µM (inactive) and the EC50 [7] was > 29.9 µM (inactive).

With `O=Cc1ccc(OCC(=O)Nc2ccccc2C(F)(F)F)cc1` the IC50 [8] was > 50 µM (inactive).

With `O=C(O)CC(=O)Nc1ccccc1C(=O)O` the IC50 [8] was > 50 µM (inactive).

With `Cc1cc(C)c(C#N)c(SCC(O)CS(=O)(=O)Cc2ccccc2)n1` (centres undefined) the IC50 [5] was 31.5 µM (active).

In the case of `COc1ccc(CNCCc2ccc3c(c2)OCO3)cc1Br`, the EC50 [9] was 3.76 µM (active).

For `C/C(CC1CC(C)(C)OC1=O)=N/Nc1nc(-c2ccccc2)cs1` (centres undefined), the IC50 [5] was 52.8 µM (active).

For `COc1cc(C)c(S(=O)(=O)NCc2cccs2)cc1C`, the IC50 [8] was > 50 µM (inactive).

With `COc1cccc(S(=O)(=O)Nc2ccc3c(c2)[C@H]2C[C@H](CC(=O)NCc4ccccc4F)O[C@H](CO)[C@H]2O3)c1` the AC50 [2] was 16.1 µM (active) and the AC50 [3] was > 70 µM (inactive).

For `CCOc1ccccc1N(CC(=O)N1CCOCC1)S(=O)(=O)c1ccccc1`, the EC50 [10] was 6.68 µM (active), the EC50 [9] was 5.31 µM (active) and the EC50 [11] was 8.04 µM (active).

In the case of `O=C(NC(Cc1ccc2c(c1)OCO2)C(=O)NC(Cc1ccccc1)C(=O)O)c1ccccc1` (centres undefined), the IC50 [5] was 19.7 µM (active).

With `C=CCOC(=O)C1=C(C)N=C2SCCC(=O)N2C1c1cccs1` (centres undefined) the IC50 [8] was > 50 µM (inactive) and the AC50 [12] was > 70 µM (inactive).

For `c1csc(-c2nc3ccccc3[nH]2)c1`, the IC50 [8] was > 50 µM (inactive).

For `Cc1cccc(-c2nc3ccc(C(=O)NCCN4CCN(C)CC4)cc3nc2-c2cccc(C)c2)c1`, the IC50 [13] was > 20 µM (inactive) and the AC50 [14] was 9.79 µM (active).

For `COc1cc(C(=O)NC(=S)NNC(=O)[C@H]2C[C@@H]2c2ccccc2)cc(OC)c1OC`, the EC50 [9] was 3.76 µM (active).

In the case of `O=C(NCC(c1cccs1)N1CCOCC1)c1ccc(Cl)c([N+](=O)[O-])c1` (centres undefined), the EC50 [9] was 5.31 µM (active).

In the case of `COc1cccc2sc(/N=C/N(C)C)nc12`, the IC50 [8] was > 50 µM (inactive).

For `CCC(C)[C@H](NC(=O)Nc1ccc(Oc2ccccc2)cc1)C(=O)O` (some centres undefined), the IC50 [5] was 21.8 µM (active), the AC50 [15] was 5.62 µM (inconclusive) and the AC50 [16] was 8.91 µM (inconclusive).
